Values joined by “and” are separate entries in the source; they are usually repeats but may differ in a detail not shown here. Equal values may be shown once. Toxic doses and inconclusive results are not listed. The calls were made as follows: active = survival T/C of 150% or more; inactive = T/C below 125% in these data.
Tested on: P388 leukemia ip, CD2F1 mice, survival T/C
Test: NCI In Vivo Anticancer Drug Screen. Data for tumor model P388 Leukemia (intraperitoneal) in CD2F1 (CDF1) mice
Conditions: endpoint: median survival time, higher = longer survival
Method in brief: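 Mice carrying the transplanted tumor received test compound or vehicle. Survival was recorded in each group, and the value is the treated-group measurement divided by that of the vehicle-treated control group.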

[1] = dose: 200.0 mg/kg/injection, schedule: Q01DX005 (ip), vehicle: Klucel (hydroxypropylcellulose) (HPC)

Measured: T/C

COc1ccc(OC)c(N2C(=O)C(=O)C(C(C)=O)C2=O)c1 (centres undefined)
inactive: dose: 50.0 mg/kg/injection, schedule: Q01DX009 (ip), vehicle: Klucel (hydroxypropylcellulose) (HPC) 107 % of control | dose: 100.0 mg/kg/injection, schedule: Q01DX009 (ip), vehicle: Klucel (hydroxypropylcellulose) (HPC) 101 % of control | dose: 200.0 mg/kg/injection, schedule: Q01DX009 (ip), vehicle: Klucel (hydroxypropylcellulose) (HPC) 105 % of control

Cc1ccccc1Nc1ccnc2c1ccc1ccccc12
inactive: dose: 50.0 mg/kg/injection, schedule: Q01DX005 (ip), vehicle: saline with Tween-80 88 % of control | dose: 100.0 mg/kg/injection, schedule: Q01DX005 (ip), vehicle: saline with Tween-80 92 % of control | dose: 200.0 mg/kg/injection, schedule: Q01DX005 (ip), vehicle: saline with Tween-80 88 % of control

CC1CC(=O)CCC2(C)C(OC(C)(C)C)CCC12 (centres undefined)
inactive: dose: 50.0 mg/kg/injection, schedule: Q01DX005 (ip), vehicle: Klucel (hydroxypropylcellulose) (HPC) 100 % of control | dose: 100.0 mg/kg/injection, schedule: Q01DX005 (ip), vehicle: Klucel (hydroxypropylcellulose) (HPC) 99 % of control | [1] 99 % of control

O=C(NC1C=Nc2ccc(Cl)cc2NC1=O)c1ccc2ccccc2c1 (centres undefined)
inactive: dose: 60.0 mg/kg/injection, schedule: Q01DX005 (ip), vehicle: Klucel (hydroxypropylcellulose) (HPC) 90 % of control | dose: 120.0 mg/kg/injection, schedule: Q01DX005 (ip), vehicle: Klucel (hydroxypropylcellulose) (HPC) 91 % of control | dose: 240.0 mg/kg/injection, schedule: Q01DX005 (ip), vehicle: Klucel (hydroxypropylcellulose) (HPC) 92 % of control

C=CC(=O)OCCCCCCCCCC
inactive: dose: 100.0 mg/kg/injection, schedule: Q04DX003 (ip), vehicle: Klucel (hydroxypropylcellulose) (HPC) 101 % of control | dose: 200.0 mg/kg/injection, schedule: Q04DX003 (ip), vehicle: Klucel (hydroxypropylcellulose) (HPC) 109 % of control | dose: 400.0 mg/kg/injection, schedule: Q04DX003 (ip), vehicle: Klucel (hydroxypropylcellulose) (HPC) 108 % of control

Nc1cccc(CCCCc2ccccc2)c1
inactive: dose: 100.0 mg/kg/injection, schedule: Q04DX002 (ip), vehicle: saline 103 % of control | dose: 200.0 mg/kg/injection, schedule: Q04DX002 (ip), vehicle: saline 110 % of control

C=C1C=C(C)C(=O)O1
inactive: dose: 100.0 mg/kg/injection, schedule: Q01DX001 (ip), vehicle: saline with Tween-80 99 % of control | dose: 200.0 mg/kg/injection, schedule: Q01DX001 (ip), vehicle: saline with Tween-80 103 % of control | dose: 400.0 mg/kg/injection, schedule: Q01DX001 (ip), vehicle: saline with Tween-80 105 % of control

CC1SC2(C(=O)Nc3ccccc32)N(c2ccc(Cl)cc2)C1=O (centres undefined)
inactive: dose: 60.0 mg/kg/injection, schedule: Q01DX005 (ip), vehicle: saline with Tween-80 101 % of control | dose: 120.0 mg/kg/injection, schedule: Q01DX005 (ip), vehicle: saline with Tween-80 103 % of control | dose: 240.0 mg/kg/injection, schedule: Q01DX005 (ip), vehicle: saline with Tween-80 96 % of control

CC1=C/C(O)CC(=O)Cc2nc(co2)C(=O)N2CCC=C2C(=O)OC(C(C)C)C(C)/C=C\C(=O)NC/C=C\1 (centres undefined)
inactive: [1] 111 % of control | dose: 400.0 mg/kg/injection, schedule: Q01DX005 (ip), vehicle: Klucel (hydroxypropylcellulose) (HPC) 114 % of control | dose: 1.0 micrograms/kg/injection, schedule: Q01DX009 (ip), vehicle: Klucel (hydroxypropylcellulose) (HPC) 104 % of control and 107 % of control and 115 % of control | dose: 2.0 micrograms/kg/injection, schedule: Q01DX009 (ip), vehicle: Klucel (hydroxypropylcellulose) (HPC) 111 % of control and 114 % of control and 121 % of control | dose: 4.0 micrograms/kg/injection, schedule: Q01DX009 (ip), vehicle: Klucel (hydroxypropylcellulose) (HPC) 111 % of control and 112 % of control and 121 % of control | dose: 8.0 micrograms/kg/injection, schedule: Q01DX009 (ip), vehicle: Klucel (hydroxypropylcellulose) (HPC) 104 % of control and 111 % of control and 123 % of control

O=C(O)c1c[nH]c2cc(S(=O)(=O)O)ccc2c1=O
inactive: dose: 50.0 mg/kg/injection, schedule: Q01DX009 (ip), vehicle: saline 95 % of control | dose: 100.0 mg/kg/injection, schedule: Q01DX009 (ip), vehicle: saline 100 % of control | dose: 200.0 mg/kg/injection, schedule: Q01DX009 (ip), vehicle: saline 92 % of control

C=CC(=NC(C)(C)C)Nc1ccc(OC)cc1
inactive: dose: 50.0 mg/kg/injection, schedule: Q01DX009 (ip), vehicle: saline with Tween-80 112 % of control | dose: 100.0 mg/kg/injection, schedule: Q01DX009 (ip), vehicle: saline with Tween-80 112 % of control

Reference: PubChem BioAssay AID330 (DTP/NCI, 2004)
